# Measurements as given in PubChem BioAssay (NCI).
# Several values for one entry are separate records, joined by “and”; a condition that tells them apart may be missing. Equal entries are not always repeated.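 Following 48 hours of exposure in 96-well plates, responses at five concentrations were used to interpolate endpoints linearly. Here, GI50 denotes the concentration required for 50% inhibition of growth. Definition used: TGI = concentration required for complete inhibition of growth.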
# How the values were obtained:
# Test in all cases: NCI anticancer screen, dose series, 48 h
# MCF7 breast = test system: MCF7 breast
# OVCAR-8 ovarian = test system: OVCAR-8 ovarian
# MDA-MB-435 = test system: MDA-MB-435
# NCI-H522 lung = test system: NCI-H522 lung
# COLO 205 colon = test system: COLO 205 colon
# A498 renal = test system: A498 renal
# ACHN renal = test system: ACHN renal
# 786-0 renal = test system: 786-0 renal
# SK-MEL-2 melanoma = test system: SK-MEL-2 melanoma
# SNB-75 CNS = test system: SNB-75 CNS
Structure (SMILES),TGI (MCF7 breast) [µM],TGI (OVCAR-8 ovarian) [µM],TGI (MDA-MB-435) [µM],TGI (NCI-H522 lung) [µM],TGI (COLO 205 colon) [µM],TGI (A498 renal),TGI (ACHN renal),TGI (786-0 renal) [µM],TGI (SK-MEL-2 melanoma) [µM],TGI (SNB-75 CNS),GI50 (MCF7 breast),GI50 (OVCAR-8 ovarian),GI50 (MDA-MB-435),GI50 (NCI-H522 lung),GI50 (COLO 205 colon),GI50 (A498 renal),GI50 (ACHN renal),GI50 (786-0 renal),GI50 (SK-MEL-2 melanoma),GI50 (SNB-75 CNS)
Cc1cc(=O)oc2cc(OC(=O)N(CCCl)CCCl)ccc12,> 100,> 100,> 100,> 100,> 100,> 100 µM,> 100 µM,> 100,> 100,> 100 µM,,,,,,,,,,
Clc1ccc2c(c1)C(N1CCNCC1)=Nc1ccccc1O2,3.05,4,3.11,3.87,2.67,5.46 µM,4.2 µM,3.27,3.4,2.79 µM,1.62 µM,1.86 µM,1.65 µM,1.82 µM,1.36 µM,3.1 µM,1.97 µM,1.49 µM,1.77 µM,1.13 µM
Cn1cc(C2=C(c3cn(C)c4cc(N)ccc34)C(=O)NC2=O)c2ccccc21,> 16.8,> 25,> 21.2,8.53,9.59,7.54 µM,12.1 µM,> 25,10.6,2.09 µM,0.696 µM,4.18 µM,0.112 µM,1.36 µM,1.63 µM,0.944 µM,2.59 µM,3.42 µM,4.26 µM,0.252 µM
COc1cc(/C=C2\CN(C(=O)CCN3CCC(=NO)CC3)C/C(=C\c3cc(OC)c(OC)c(OC)c3)C2=O)cc(OC)c1OC,2.44,> 35.6,0.637,1.34,1.27,2.07 µM,2.51 µM,1.14,4.14,2 µM,0.382 µM,0.444 µM,0.239 µM,0.323 µM,0.419 µM,0.658 µM,0.837 µM,0.355 µM,1.25 µM,0.425 µM
CCCCN(CCCC)CCc1c(C)cc(C)c(CCN(CCCC)CCCC)c1O,8.13,> 100,53.2,7.54,4.14,7.31 µM,> 100 µM,9.93,5.78,40.3 µM,2.39 µM,3.28 µM,3.11 µM,2.59 µM,1.96 µM,2.3 µM,3.47 µM,2.96 µM,2.24 µM,2.52 µM
Cc1nn(CNc2ccccc2C(F)(F)F)c(=S)n1/N=C/c1ccc(F)cc1,> 100,> 100,> 100,> 100,> 100,> 100 µM,> 100 µM,> 100,> 100,91.3 µM,60.3 µM,> 100 µM,> 100 µM,> 100 µM,53.2 µM,> 100 µM,> 100 µM,> 100 µM,> 100 µM,29.5 µM
COc1cc2ncnc3c2cc1OCCCCCN(C)Cc1ccc(Br)cc1N3,> 100,> 100,> 100,,> 100,17.3 µM and > 10 µM,37.5 µM and > 10 µM,> 100,> 100,64 µM and > 10 µM,8.89 µM and 5.35 µM,12 µM and 2.67 µM,8.63 µM and 7.39 µM,0.851 µM and 0.225 µM,5.68 µM and 4.67 µM,1.35 µM and 0.539 µM,0.0871 µM and 0.262 µM,37.4 µM and 5.07 µM,6.37 µM and 2.2 µM,6.14 µM and 2.91 µM
Oc1c(CN2CCCC2)cc(CSCc2ccccc2)c2cccnc12,11.3,9.79,13.6,3.77,18.7,8.08 µM,10.2 µM,6.09,7.21,15.9 µM,0.475 µM,0.462 µM,1.4 µM,1.14 µM,4.82 µM,2.26 µM,0.291 µM,0.728 µM,1.86 µM,1.5 µM
CC(C(=O)O)c1ccc(-c2ccccc2)c(F)c1 (stereo unspecified),> 100,> 100,> 100,> 100,> 100,> 100 µM,> 100 µM,> 100,> 100,> 100 µM,,,,,,,,,,
C/C(=N\NC(=S)N1CCN(c2ccccn2)CC1)c1nccs1,18.3,14.4,12.8,16.3,15.3,17.4 µM,9.96 µM,13,9.9,19.4 µM,0.377 µM,,,0.0574 µM and 0.261 µM,0.0361 µM,,,,,
O=C(Nc1ccc(Br)cc1)Nc1nn(C(=O)Nc2ccc(Br)cc2)c2ccccc12,> 100,> 100,> 100,> 100,> 100,> 81 µM,> 100 µM,> 100,> 100,28.7 µM,29.1 µM,36.2 µM,> 100 µM,31 µM,> 100 µM,31.4 µM,61.9 µM,34.3 µM,23.7 µM,8.26 µM
CNCCNc1nc2ccccc2c2c(=O)c3cc(F)ccc3sc12,3.31,3.84,3.22,3.42,3.36,6.96 µM,2.91 µM,3.09,3.45,5.6 µM,1.67 µM,1.85 µM,1.71 µM,1.66 µM,1.67 µM,2.05 µM,1.56 µM,1.59 µM,1.76 µM,1.58 µM
CC[C@]1(O)C[C@@H]2CN(CCc3c([nH]c4ccccc34)[C@@](C(=O)OC)(c3cc4c(cc3OC)N(C)[C@H]3[C@@](O)(C(N)=O)[C@H](O)[C@]5(CC)[C@@H]6C[C@@H]6CN6CC[C@]43[C@@H]65)C2)C1,> 18.2,> 33.3,< 0.00333,< 0.00333,0.00878,0.243 µM,> 33.3 µM,> 19.3,,20.6 µM,< 0.00333 µM,0.0143 µM,< 0.00333 µM,< 0.00333 µM,< 0.00333 µM,0.00466 µM,0.161 µM,0.0247 µM,< 0.00333 µM,< 0.00333 µM
